Data from US20200018743A1, “MINI-CANCERS UTILIZATION FOR PERSONALIZED CANCER DRUG REGIMENS” (THE JOHNS HOPKINS UNIVERSITY, priority 2017, published 2020).
Entries after “also recorded” stand apart in the source; their conditions may differ. Where two headings read alike, the source gives them in different places. Starred links: 1 amine or outer side, 2 acyl side, 3 side chain; linkers in the order of their positions; H or OH if unused. Positions of bridges follow the written chain, without caps; N, C: chain ends. Non-standard residues stand in square brackets, D forms with d. Residues, ends and D or L forms follow the SMILES beside them. Chains are numbered I, II in the order given. Actinocin(9to1) = Cc1c2oc3c(C)ccc(C(=O)[*:1])c3nc-2c(C(=O)[*:2])c(N)c1=O; NMeV = CN[C@H](C(=O)O)C(C)C; Sar = CNCC(=O)O

Tests used:
[1] = system: CCA8 sister CCA PDO lines; test: 129-drug panel on the 6 sister PDO lines of CCA8; format: cell-based, human
From the text: (§1) This intra tumor functional heterogeneity was investigated by calculating the standard deviation of a drug response across all PDO lines established from a patient tumor. […] The inventors chose one of the cancer specimens (CCA8) for further in-depth studies of intra-tumor functional heterogeneity and the identification of its drivers. […] To visualize this phenomenon, we calculated the standard deviation of each drug effect across the 6 PDOs (FIG. 20D). […] To this end, we first chose drugs that induced 30% or less viability in at least one of the 6 sister CCA PDO lines when tested at a 10 uM concentration. […] Of note, there is no known genetic alteration (mutational or otherwise) to predict the response of human cancers to proteasome inhibitors.
(§2) PDOs were plated in 96-well or 384-well plates and cultured for 3 days. Next, media was changed with drug-containing media. The initial screen was performed at a concentration of 10 uM. After 4 days, viability was determined in each well with Cell TiterGlo (Cat #: G7572, Promega, Wis.) following the manufacturer's instruction. […] was measured with a plate reader (Perkin-Elmer EnVision Plate Reader). Drugs that induced less than 50% viability were chosen for future studies.

[2] = system: 27 liver cancer PDO lines; test: High throughput screening of NCI VII 129-drug panel on 27 liver cancer PDO lines (CellTiter-Glo); format: cell-based, human; settings: for effectiveness across the cohort of primary liver mini-cancers / all 27 liver cancer PDO lines: 10 uM, CellTiter-Glo; for inter patient effect (mean cell viability per patient cancer specimen): across the 5 patients' cancers
From the text: To pick out inter patient divergent drugs (i.e., drugs with discordant effect across the 5 patients), we calculated the mean cell viability per patient cancer specimen by averaging the effect of the drugs across all PDO lines established for the same patient. This mean cell viability per patient is a measure of how the tumor, as a whole, responds to a certain drug. Next, we calculated the standard deviation of the 5 means (one per patient) and ordered the data in decreasing order of the standard deviation. […] To further visualize the inter-patient divergence of drug effects, the inventors constructed a heat map of drug responses per each patient (utilizing the mean cell viability over all clones from each patient, FIG. 20B).
as §1
Take out Matrigel from −20 C and keep at 4 C overnight. Also keep pipette tips at 4 C overnight. Count cells. Mix cells with Matrigel so that you have 200 cells per uL of Matrigel. […] Plate 2 rows, then stop. Wait till the Matrigel is solid. Then add 100 uL of growth passage media. Then continue till all plate is filled up with cells. Place plate into incubator. Take picture with white light. After 4 days replace the media with media containing drugs (90 uL media+10 uL drug work solution). Use a multi-pipette.
as §2

[3] = system: CCA PDO; test: Drug testing on a CCA PDO line read by white light / bright field images; format: cell-based, human; settings: for effect on PDO (shape, number or size of cystic PDO structures): 9-drug library, 10 uM, white light images; for effect on PDO growth (cytocidal / cytostatic): over 96 hours
Experimental: In preliminary studies, the inventors have obtained resection cancer tissue from 10 CCA patients. […] Pilots experiments were performed with a 9-drug library, at a standard HT screening drug concentration of 10 uM. For positive control, the inventors used 10% Triton X, while for negative control the inventors used DMSO at same concentration used to dissolve drugs. […] As proof of concept, the inventors then expanded to the 1,600 drug JHCCL Hopkins library (data not shown). […] This scale-up required a reproducible and accurate read out. We chose CellTiter-Glo (Promega), an ATP-based cytotoxicity assay that quantifies metabolically active cells. […] Next, the inventors sought to determine IC50s. […] Next, the inventors performed whole exome sequencing on a subset of these CCA PDOs. […] The inventors next performed pilot trials with high-content imaging. We utilized DRAQ5 (red) to stain nuclei and YOYO-1 (green in FIG. 9) to stain dead cells. In this experiment, we treated a CCA PDO culture with Gemcitabine, at concentrations from 10 to 0.1 uM. […] FIG. 10 is a representative 100× Hematoxylin and Eosin image of a PDX tumor.
Initial drug testing experiments were performed on one PDO line, with a 9-drug library, at a standard HT screening drug concentration of 10 uM. For these experiments, we utilized a CCA PDO line. For positive control, we used 10% Triton X, while for negative control we used DMSO […] same concentration used to dissolve drugs. For these experiments, we utilized white light images and equated the killing effect of drugs into shrinking of PDO cystic structures. […] To this end, we tested the 5 chemotherapy agents typically used in CCA patients, as well as several combinations (FIG. 18C). […] Next, we sought a fast, reproducible and relatively inexpensive read out of cell death (or inhibited proliferation). We chose CellTiter-Glo (Promega), which is an ATP-based cytotoxicity assay that quantifies metabolically active cells. […] Therefore, we have used CellTiter-Glo for all subsequent experiments. […] By using CellTiter-Glo, we quantified the viability of cells treated with single agents as well as combinations (as in FIG. 18C).

[4] = system: HCC; settings: HCC patients; cited from earlier work

| Compound | killing effect / activity across the 6 PDO lines ([1]; CCA8, 10 uM) | effectiveness across the cohort of primary liver mini-cancers / all 27 liver cancer PDO lines [2] | further results |
| --- | --- | --- | --- |
| CO[C@@]12[C@H](COC(N)=O)C3=C(C(=O)C(C)=C(N)C3=O)N1C[C@@H]1N[C@@H]12 [Mitomycin, mitomycin] |  |  | killing effect / activity across the 6 PDO lines [1]: effective across the 6 PDO lines |
| plicamycin | effective across the 6 PDO lines | pan-effective |  |
| COc1cccc2c1C(=O)c1c(O)c3c(c(O)c1C2=O)C[C@@](O)(C(=O)CO)C[C@@H]3O[C@H]1C[C@H](N)[C@H](O)[C@H](C)O1 [Doxorubicin] |  |  | inter patient effect (mean cell viability per patient cancer specimen) [2]: work in majority of cancers, but not in all of them |
| Cc1[nH]c2ccccc2c1CCNCc1ccc(/C=C/C(=O)NO)cc1 [Panobinostat, panobinostat] |  | pan-effective |  |
| C/C=C1\NC(=O)[C@H]2CSSCC/C=C/[C@H](CC(=O)N[C@H](C(C)C)C(=O)N2)OC(=O)[C@H](C(C)C)NC1=O [Romidepsin, romidepsin] | effective across the 6 PDO lines | pan-effective |  |
| CCC1=C[C@@H]2CN(C1)Cc1c([nH]c3ccccc13)[C@@](C(=O)OC)(c1cc3c(cc1OC)N(C)[C@H]1[C@@](O)(C(=O)OC)[C@H](OC(C)=O)[C@]4(CC)C=CCN5CC[C@]31[C@@H]54)C2 [Vinorelbine] |  |  | effect on PDO (shape, number or size of cystic PDO structures) [3]: effective |
| Cc1cc(Nc2ncc(Cl)c(Nc3ccccc3S(=O)(=O)C(C)C)n2)c(OC(C)C)cc1C1CCNCC1 [Ceritinib] | high activity in 3/6 and almost no activity in the rest 3/6 PDO lines |  |  |
| COc1cccc2c1C(=O)c1c(O)c3c(c(O)c1C2=O)C[C@@](O)(C(C)=O)C[C@@H]3O[C@H]1C[C@H](N)[C@H](O)[C@H](C)O1 [daunorubicin] |  | pan-effective |  |
| CC(=O)[C@]1(O)Cc2c(O)c3c(c(O)c2[C@@H](O[C@H]2C[C@H](N)[C@H](O)[C@H](C)O2)C1)C(=O)c1ccccc1C3=O [Idarubicin, idarubicin] | effective across the 6 PDO lines | pan-effective |  |
| Cc1c2oc3c(C)ccc(C(=O)N[C@@H]4C(=O)N[C@H](C(C)C)C(=O)N5CCC[C@H]5C(=O)N(C)CC(=O)N(C)[C@@H](C(C)C)C(=O)O[C@@H]4C)c3nc-2c(C(=O)N[C@@H]2C(=O)N[C@H](C(C)C)C(=O)N3CCC[C@H]3C(=O)N(C)CC(=O)N(C)[C@@H](C(C)C)C(=O)O[C@@H]2C)c(N)c1=O [Dactinomycin, dactinomycin] (I: T[dV]P[Sar][NMeV] / II: T[dV]P[Sar][NMeV]; ester I:1-I:C, II:1-II:C; linker I:N-II:N via Actinocin(9to1)) |  |  | inter patient effect (mean cell viability per patient cancer specimen) [2]: work well in just 1 cancer |
| O=C1CCC(N2C(=O)c3ccccc3C2=O)C(=O)N1 (stereo not shown) [Thalidomide] | uniformly ineffective |  |  |
| Nc1ccn([C@@H]2O[C@H](CO)[C@@H](O)C2(F)F)c(=O)n1 [Gemcitabine] | moderate activity in 1/6 and poor activity in 5/6 PDO lines |  | inter patient effect (mean cell viability per patient cancer specimen) [2]: work in majority of cancers, but not in all of them; effect on PDO (shape, number or size of cystic PDO structures) [3]: moderate cytostatic but not a cytocydal effect; effect on PDO growth (cytocidal / cytostatic) [3]: moderate cytostatic, but not cytocidal effect; effect on PDO growth (cytocidal / cytostatic) ([3]; listed as Gemicitabine): partially effective |
| O=C(/C=C/c1cccc(S(=O)(=O)Nc2ccccc2)c1)NO [Belinostat] | moderate activity in 1/6 PDO lines and generally poor activity in 5/6 |  |  |
| CC(C)C[C@H](NC(=O)CNC(=O)c1cc(Cl)ccc1Cl)B(O)O [Ixazomib, ixazomib] | effective across the 6 PDO lines | pan-effective |  |
| CC[C@@]1(O)C(=O)OCc2c1cc1n(c2=O)Cc2cc3c(CN(C)C)c(O)ccc3nc2-1 [topotecan] |  | pan-effective |  |
| N.N.[Cl][Pt][Cl] [Cisplatin] | uniformly ineffective |  | effect on PDO (shape, number or size of cystic PDO structures) [3]: no effect; also recorded: did not appear to have any effect; effect on PDO (shape, number or size of cystic PDO structures) ([3]; listed as cisplatin): no effect on the round shape of PDO; effectiveness in CCAs tested ([3]; all 6 CCAs tested): ineffective; effect on PDO growth (cytocidal / cytostatic) [3]: ineffective; also recorded: unaffected PDO growth |
| N#Cc1ccc(C(c2ccc(C#N)cc2)n2cncn2)cc1 [Letrozole] | uniformly ineffective |  |  |
| CC[C@H](Nc1ncnc2[nH]cnc12)c1nc2cccc(F)c2c(=O)n1-c1ccccc1 [Idelalisib] | uniformly ineffective |  |  |
| N[C@@H](Cc1ccc(N(CCCl)CCCl)cc1)C(=O)O [Melphalan] | uniformly ineffective |  |  |
| CNC(=O)c1cc(Oc2ccc(NC(=O)Nc3ccc(Cl)c(C(F)(F)F)c3)cc2)ccn1 [Sorafenib] |  |  | inter patient effect (mean cell viability per patient cancer specimen) [2]: work in majority of cancers, but not in all of them; improvement of survival [4]: 3 months; side effects [4]: severe side effects |
| CC(C)C[C@H](NC(=O)[C@H](CCc1ccccc1)NC(=O)CN1CCOCC1)C(=O)N[C@@H](Cc1ccccc1)C(=O)N[C@@H](CC(C)C)C(=O)[C@@]1(C)CO1 [Carfilzomib, carifilzomib] | effective across the 6 PDO lines | pan-effective |  |
| CS(=O)(=O)CCNCc1ccc(-c2ccc3ncnc(Nc4ccc(OCc5cccc(F)c5)c(Cl)c4)c3c2)o1 [Lapatinib] | uniformly ineffective |  |  |
| CC[C@]1(O)C[C@H]2CN(CCc3c([nH]c4ccccc34)[C@@](C(=O)OC)(c3cc4c(cc3OC)N(C=O)[C@H]3[C@@](O)(C(=O)OC)[C@H](OC(C)=O)[C@]5(CC)C=CCN6CC[C@]43[C@@H]65)C2)C1 [vincristine] |  |  | inter patient effect (mean cell viability per patient cancer specimen) [2]: work well in just 1 cancer |
| COC(=O)C[C@](O)(CCCC(C)(C)O)C(=O)O[C@@H]1C(OC)=C[C@]23CCCN2CCc2cc4c(cc2[C@H]13)OCO4 [Omacetaxine, omacetaxine] | wide response |  |  |
| COc1cccc2c1C(=O)c1c(O)c3c(c(O)c1C2=O)C[C@@](O)(C(=O)CO)C[C@@H]3O[C@H]1C[C@H](N)[C@@H](O)[C@H](C)O1 [Epirubicin] | wide response |  |  |
